Laboratory results from US8569241B2, “Composition for improving brain function and method for improving brain function” (Calpis Co., Ltd., priority 2009, dated 2013).

Key:
Assay type in all cases: in vivo
[1] = tested on: scopolamine-induced amnesia; experiment: Y-shaped maze test, spontaneous alternation behavior, scopolamine-induced amnesia; conditions: once orally 60 min before test, ddY mice
Experimental: Male mice (n=15 to 75) of the ddY strain (approximately 7-week old) were used, and they received food and water ad lib. Test substances used were 0.05 nmol/kg weight (0.1 μg/kg weight), 0.5 nmol/kg weight (1 μg/kg weight), 1.5 nmol/kg weight (3 μg/kg weight), 5 nmol/kg weight (10 μg/kg weight), 50 nmol/kg weight (100 μg/kg weight), and 500 nmol/kg weight (1000 μg/kg weight) of Asn-Ile-Pro-Pro-Leu-Thr-Gln-Thr-Pro-Val-Val-Val-Pro-Pro-Phe-Leu-Gln-Pro-Glu. The test substances were administered to the mice once orally 60 minutes before the execution of a Y-shaped maze test for evaluation of spontaneous alternation behavior. Further, 30 minutes before the execution of the Y-shaped maze test, 1 mg/kg weight of scopolamine was subcutaneously administered on the backs of the mice in order to induce brain dysfunction (dysmnesia and/or cognitive impairment) in the mice. In the Y-shaped maze test, a Y-shaped maze was used as an experimental device, in which the length of each arm was 40 cm, the height of the wall was 12 cm, the width of the floor was 3 cm, and the width of the upper part was 10 cm, and three arms were connected to each other at an angle of 120 degrees. Each of the mice was placed at the tip of any one of the arms of the Y-shaped maze, and then let go to freely explore in the maze for 8 minutes. The sequence of the arms each of the mice entered was recorded. The number of entries by each of the mice for each of the arms during the measurement time was counted to be the total number of entries. In the sequence, the combination in which three different arms were selected in succession (for example, with the three arms respectively called A, B, and C, if the sequence of the arms entered is ABCBACACB, the count is 4 inclusive of overlapping) was investigated, and the number of the count was used as the number of spontaneous alternation behavior. The percentage of spontaneous alternation behavior was calculated by dividing the number of spontaneous alternation behavior by a number obtained by subtracting 2 from the total number of entries, and multiplying a resultant number by 100. The percentage of spontaneous alternation behavior was used as an indicator. […] The measured values were expressed in the form of mean±standard error for each group. A significant difference between the control group and the scopolamine control group was calculated using Student's t-test. Further, a significant difference between the scopolamine control group and the NIPPLTQTPVVVPPFLQPE-administered groups was calculated using Dunnett's multiple comparison test after one-way analysis of variance.
Male mice (n=15 to 45) of the ddY strain (approximately 7-week old) were used, and they received food and water ad Iib. Test substances used were: 50 nmol/kg weight (100 μg/kg weight) of Asn-Ile-Pro-Pro-Leu-Thr-Gln-Thr-Pro-Val-Val-Val-Pro-Pro-Phe-Leu-Gln-Pro-Glu; 50 nmol/kg weight (120 μg/kg weight) of […]([…]); 50 nmol/kg weight (100 μg/kg weight) of Ile-Pro-Pro-Leu-Thr-Gln-Thr-Pro-Val-Val-Val-Pro-Pro-Phe-Leu-Gln-Pro-Glu (IPPLTQTPVVVPPFLQPE); 50 nmol/kg weight (100 μg/kg weight) of Asn-Ile-Pro-Pro-Leu-Thr-Gln-Thr-Pro-Val-Val-Val-Pro-Pro-Phe-Leu-Gln-Pro (NIPPLTQTPVVVPPFLQP) (SEQ ID NO: 18); and 50 nmol/kg weight (50 μg/kg weight) of Thr-Gln-Thr-Pro-Val-Val-Val-Pro-Pro-Phe (TQTPVVVPPF) (SEQ ID NO: 19). The test substances were administered to the mice once orally 60 minutes before the execution of a Y-shaped maze test for evaluation of spontaneous alternation behavior. Further, 30 minutes before the execution of the Y-shaped maze test, 1 mg/kg weight of scopolamine was subcutaneously administered on the backs of the mice in order to induce brain dysfunction (dysmnesia and/or cognitive impairment) in the mice. […]

[2] = tested on: scopolamine-induced amnesia; experiment: as above; conditions: once orally 60 min before test, scopolamine 1 mg/kg s.c., ddY mice
[3] = tested on: memory maintenance; experiment: novel object recognition test for evaluation of memory maintenance; conditions: Example 4, FIG. 4; 500 nmol/kg weight (1000 μg/kg weight), once orally 60 min before training trial; retention trial 48 hours later; ddY mice
Experimental: Male mice (n=14 to 15) of the ddY strain (approximately 7-week old) were used, and they received food and water ad lib. A test substance used was 500 nmol/kg weight (1000 μg/kg weight) of Asn-Ile-Pro-Pro-Leu-Thr-Gln-Thr-Pro-Val-Val-Val-Pro-Pro-Phe-Leu-Gln-Pro-Glu. The test substance was administered to the mice once orally 60 minutes before the execution of a novel object recognition test for evaluation of memory maintenance. In the novel object recognition test, a 30 cm x30 cm x30 cm box was used as an experimental device. For acclimation, each of the mice was placed in the experimental device with floor bedding for 5 minutes, and then allo the aminals to go around freely in the device. On the next day of the acclimation treatment, a training trial was performed. In the training trial, two among three kinds of objects were selected and disposed in the experimental device (the objects were arranged along the central line of the floor at positions 8 cm away from the walls on two sides, and the positions were designated as X1 and X2). […] In the training trial and the retention trial, the time (seconds) the mice spent exploring each object by approaching within 1 cm therefrom was measured (except the time when the mice were riding on the object). For each of the training trial and the retention trial, an exploration time ratio between the two objects was calculated. […]

[4] = Example 2, FIG. 2, 50 nmol/kg weight, scopolamine 1 mg/kg s.c., Dunnett's test vs scopolamine control
[5] = Example 6, FIG. 6, 500 nmol/kg weight, Student's t-test
[6] = Example 3, FIG. 3, 500 nmol/kg weight (1000 μg/kg weight), Dunnett's test

Sequence	prophylactic activity against amnesia (percentage of spontaneous alternation behavior) [1, 4]	prophylactic activity against amnesia (percentage of spontaneous alternation behavior) [2, 5]	further results
IPPLTQTPVVVPPFLQPE (Synthetic functional peptide) [Ile-Pro-Pro-Leu-Thr-Gln-Thr-Pro-Val-Val-Val-Pro-Pro-Phe-Leu-Gln-Pro-Glu]	had a prophylactic activity against amnesia		
LTQTPVVVPPFLQPE (Synthetic functional peptide) [Leu-Thr-Gln-Thr-Pro-Val-Val-Val-Pro-Pro-Phe-Leu-Gln-Pro-Glu]		had a prophylactic activity against amnesia	
NIPPLTQTPVVVPPFLQP (Synthetic comparative example) [Asn-Ile-Pro-Pro-Leu-Thr-Gln-Thr-Pro-Val-Val-Val-Pro-Pro-Phe-Leu-Gln-Pro]	did not show any prophylactic activity against amnesia		
NIPPLTQTPVVVPPFLQPE (Synthetic functional peptide) [Asn-Ile-Pro-Pro-Leu-Thr-Gln-Thr-Pro-Val-Val-Val-Pro-Pro-Phe-Leu-Gln-Pro-Glu]	had a prophylactic activity against amnesia		prophylactic activity against amnesia (percentage of spontaneous alternation behavior) ([1]; Example 1, FIG. 1, 0.05 nmol/kg weight to 500 nmol/kg weight (0.1 to 1000 μg/kg weight), scopolamine 1 mg/kg s.c. 30 min before, Dunnett's test): had a prophylactic activity against amnesia; memory strengthening activity (exploration time ratio of novel object) [3]: had a memory strengthening activity; prophylactic activity against amnesia (percentage of spontaneous alternation behavior) [2, 6]: had a prophylactic activity against amnesia
NIPPLTQTPVVVPPFLQPEVM (Synthetic functional peptide)	had a prophylactic activity against amnesia		
PLTQTPVVVPPFLQPE (Synthetic functional peptide) [Pro-Leu-Thr-Gln-Thr-Pro-Val-Val-Val-Pro-Pro-Phe-Leu-Gln-Pro-Glu]		had a prophylactic activity against amnesia	
PPLTQTPVVVPPFLQPE (Synthetic functional peptide) [Pro-Pro-Leu-Thr-Gln-Thr-Pro-Val-Val-Val-Pro-Pro-Phe-Leu-Gln-Pro-Glu]			prophylactic activity against amnesia (percentage of spontaneous alternation behavior) [2, 6]: had a prophylactic activity against amnesia
PVVVPPFLQPE (Synthetic functional peptide) [Pro-Val-Val-Val-Pro-Pro-Phe-Leu-Gln-Pro-Glu]		had a prophylactic activity against amnesia	
TQTPVVVPPF (Synthetic comparative example) [Thr-Gln-Thr-Pro-Val-Val-Val-Pro-Pro-Phe]	did not show any prophylactic activity against amnesia		
TQTPVVVPPFLQPE (Synthetic functional peptide) [Thr-Gln-Thr-Pro-Val-Val-Val-Pro-Pro-Phe-Leu-Gln-Pro-Glu]			prophylactic activity against amnesia (percentage of spontaneous alternation behavior) ([2]; Example 5, FIG. 5, 50 nmol/kg weight (80 μg/kg weight), Student's t-test): had a prophylactic activity against amnesia
VVVPPFLQPE (Synthetic functional peptide) [Val-Val-Val-Pro-Pro-Phe-Leu-Gln-Pro-Glu]		had a prophylactic activity against amnesia	
